Series [1] relates to HCT-116. Nature of the series: Induction of apoptosis in human HCT116 cells assessed as early apoptotic cells at 50 nM measured after 48 hrs by Annexin V-FITC/propidium iodide staining-based flow cytometry (reference value: 0.418%). In kind it is functional. (In general: In flow cytometry, cells or beads pass a laser one at a time.)
Series [2] concerns the target Activated CDC42 kinase 1 (Homo sapiens) (UniProt Q07912). Nature of the series: Inhibition of recombinant human ACK1 (1 to 389 residues) assessed as residual activity at 10 uM using EFPIYDFLPAKKK as substrate measured after 40 mins in presence of [gamma33P]ATP by scintillation counting method.
The target in series [3] is Tyrosine-protein kinase Fgr (Homo sapiens) (UniProt P09769). Nature of the series: Inhibition of recombinant human FGR (2 to end residues) assessed as residual activity at 10 uM using poly(Glu, Tyr) 4:1 as substrate measured after 40 mins in presence of [gamma33P]ATP by scintillation counting method.
For series [4], the target named is Serine/threonine-protein kinase 17B (Homo sapiens) (UniProt O94768). Nature of the series: Inhibition of recombinant full-length human DRAK2 assessed as residual activity at 10 uM using KKRPQRRYSNVF as substrate measured after 120 mins in presence of [gamma33P]ATP by scintillation counting method.
In series [5] the target is STE20-like serine/threonine-protein kinase (Homo sapiens) (UniProt Q9H2G2). The experiment in a line: Inhibition of human SLK (1 to 373 residues) using RLGRDKYKTLRQIRQ as substrate measured after 40 mins in presence of [gamma33P]ATP by scintillation counting method. On the set-up: scale not given: the % may be the effect or the level left.
The test system of series [6] is SW-620. Nature of the series: Induction of apoptosis in human SW620 cells assessed as necrotic cells at 100 nM measured after 48 hrs by Annexin V-FITC/propidium iodide staining-based flow cytometry (reference value: 2.71%). In kind it is functional.
The target of series [7] is Tyrosine-protein kinase HCK (Homo sapiens) (UniProt P08631). The experiment in a line: Inhibition of recombinant human HCK (230 to 497 residues) assessed as residual activity at 10 uM using Cdc2 peptide as substrate measured after 40 mins in presence of [gamma33P]ATP by scintillation counting method.
Tyrosine-protein kinase HCK (Homo sapiens), sequence (P08631 2-526 limits assumed): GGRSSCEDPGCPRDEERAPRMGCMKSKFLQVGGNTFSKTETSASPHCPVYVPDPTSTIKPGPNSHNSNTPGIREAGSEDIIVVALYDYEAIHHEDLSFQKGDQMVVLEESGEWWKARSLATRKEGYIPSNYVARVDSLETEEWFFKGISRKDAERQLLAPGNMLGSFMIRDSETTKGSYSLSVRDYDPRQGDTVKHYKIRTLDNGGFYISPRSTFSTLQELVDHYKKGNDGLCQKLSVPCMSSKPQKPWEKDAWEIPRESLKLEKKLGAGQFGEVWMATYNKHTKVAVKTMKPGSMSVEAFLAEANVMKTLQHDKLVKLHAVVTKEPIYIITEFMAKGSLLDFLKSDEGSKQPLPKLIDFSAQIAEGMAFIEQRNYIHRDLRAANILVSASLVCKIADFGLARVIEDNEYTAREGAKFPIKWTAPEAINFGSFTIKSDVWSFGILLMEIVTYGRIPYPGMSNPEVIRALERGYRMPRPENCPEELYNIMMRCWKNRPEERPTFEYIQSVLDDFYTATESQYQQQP
The species entered for series [8] is Mus musculus. Nature of the series: Inhibition of recombinant mouse ABL L782P/G784R/W785L/L786V mutant (27 to end residues) assessed as residual activity at 10 uM using EAIYAAPFAKKK as substrate measured after 40 mins in presence of [gamma33P]ATP by scintillation counting method.
The test system of series [9] is eIF-2-alpha kinase GCN2 (Homo sapiens), Q9P2K8 [E556G]. Nature of the series: Inhibition of recombinant full-length human GCN2 E556G mutant assessed as residual activity at 10 uM using RSRSRSRSRSRSRSR as substrate measured after 40 mins in presence of [gamma33P]ATP by scintillation counting method.
For series [10], the target named is MAPK/MAK/MRK overlapping kinase (Homo sapiens) (UniProt Q9UQ07). Nature of the series: Inhibition of recombinant human MOK (1 to 343 residues) assessed as residual activity at 10 uM using RSRSRSRSRSRSRSR as substrate measured after 40 mins in presence of [gamma33P]ATP by scintillation counting method.
MAPK/MAK/MRK overlapping kinase (Homo sapiens), sequence (Q9UQ07 whole entry, the tested form may be a part): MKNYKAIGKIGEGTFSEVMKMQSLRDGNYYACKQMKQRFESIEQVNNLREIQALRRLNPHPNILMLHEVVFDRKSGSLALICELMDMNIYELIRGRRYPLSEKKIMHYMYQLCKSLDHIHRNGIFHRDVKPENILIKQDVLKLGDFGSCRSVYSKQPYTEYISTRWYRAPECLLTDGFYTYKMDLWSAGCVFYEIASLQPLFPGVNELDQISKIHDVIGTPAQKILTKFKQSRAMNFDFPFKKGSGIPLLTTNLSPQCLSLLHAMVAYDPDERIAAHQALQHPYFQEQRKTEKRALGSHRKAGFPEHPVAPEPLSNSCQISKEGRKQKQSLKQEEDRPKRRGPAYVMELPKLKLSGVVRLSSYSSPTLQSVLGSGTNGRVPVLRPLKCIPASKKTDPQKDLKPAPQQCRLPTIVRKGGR
For series [11], the target named is Serine/threonine-protein kinase PAK 6 (Homo sapiens) (UniProt Q9NQU5). The experiment in a line: Inhibition of recombinant human PAK6 (382 to end residues) assessed as residual activity at 10 uM using RRRLSFAEPG as substrate measured after 40 mins in presence of [gamma33P]ATP by scintillation counting method.
Series [12] concerns MDA-MB-231. The experiment in a line: Antiproliferative activity against human MDA-MB-231 cells assessed as reduction in cell viability after 72 hrs by MTT assay. The class given is functional, cell-based. Conditions: MDA-MB-231, 72 h.
Series [13] can be described thus: Toxicity in nude BALB/c mouse assessed as change in globulin level at 40 to 80 mg/kg, po once daily for 4 weeks measured post-last dose. The class given is organism-based. Conditions: in vivo, 672 h.
For series [14], the target named is Myosin light chain kinase, smooth muscle (Homo sapiens) (UniProt Q15746). Nature of the series: Inhibition of recombinant human MLCK (1425 to 1771 residues) assessed as residual activity at 10 uM using calmodulin as substrate measured after 40 mins in presence of [gamma33P]ATP by scintillation counting method.
Myosin light chain kinase, smooth muscle (Homo sapiens), sequence (Q15746 whole entry, the tested form may be a part): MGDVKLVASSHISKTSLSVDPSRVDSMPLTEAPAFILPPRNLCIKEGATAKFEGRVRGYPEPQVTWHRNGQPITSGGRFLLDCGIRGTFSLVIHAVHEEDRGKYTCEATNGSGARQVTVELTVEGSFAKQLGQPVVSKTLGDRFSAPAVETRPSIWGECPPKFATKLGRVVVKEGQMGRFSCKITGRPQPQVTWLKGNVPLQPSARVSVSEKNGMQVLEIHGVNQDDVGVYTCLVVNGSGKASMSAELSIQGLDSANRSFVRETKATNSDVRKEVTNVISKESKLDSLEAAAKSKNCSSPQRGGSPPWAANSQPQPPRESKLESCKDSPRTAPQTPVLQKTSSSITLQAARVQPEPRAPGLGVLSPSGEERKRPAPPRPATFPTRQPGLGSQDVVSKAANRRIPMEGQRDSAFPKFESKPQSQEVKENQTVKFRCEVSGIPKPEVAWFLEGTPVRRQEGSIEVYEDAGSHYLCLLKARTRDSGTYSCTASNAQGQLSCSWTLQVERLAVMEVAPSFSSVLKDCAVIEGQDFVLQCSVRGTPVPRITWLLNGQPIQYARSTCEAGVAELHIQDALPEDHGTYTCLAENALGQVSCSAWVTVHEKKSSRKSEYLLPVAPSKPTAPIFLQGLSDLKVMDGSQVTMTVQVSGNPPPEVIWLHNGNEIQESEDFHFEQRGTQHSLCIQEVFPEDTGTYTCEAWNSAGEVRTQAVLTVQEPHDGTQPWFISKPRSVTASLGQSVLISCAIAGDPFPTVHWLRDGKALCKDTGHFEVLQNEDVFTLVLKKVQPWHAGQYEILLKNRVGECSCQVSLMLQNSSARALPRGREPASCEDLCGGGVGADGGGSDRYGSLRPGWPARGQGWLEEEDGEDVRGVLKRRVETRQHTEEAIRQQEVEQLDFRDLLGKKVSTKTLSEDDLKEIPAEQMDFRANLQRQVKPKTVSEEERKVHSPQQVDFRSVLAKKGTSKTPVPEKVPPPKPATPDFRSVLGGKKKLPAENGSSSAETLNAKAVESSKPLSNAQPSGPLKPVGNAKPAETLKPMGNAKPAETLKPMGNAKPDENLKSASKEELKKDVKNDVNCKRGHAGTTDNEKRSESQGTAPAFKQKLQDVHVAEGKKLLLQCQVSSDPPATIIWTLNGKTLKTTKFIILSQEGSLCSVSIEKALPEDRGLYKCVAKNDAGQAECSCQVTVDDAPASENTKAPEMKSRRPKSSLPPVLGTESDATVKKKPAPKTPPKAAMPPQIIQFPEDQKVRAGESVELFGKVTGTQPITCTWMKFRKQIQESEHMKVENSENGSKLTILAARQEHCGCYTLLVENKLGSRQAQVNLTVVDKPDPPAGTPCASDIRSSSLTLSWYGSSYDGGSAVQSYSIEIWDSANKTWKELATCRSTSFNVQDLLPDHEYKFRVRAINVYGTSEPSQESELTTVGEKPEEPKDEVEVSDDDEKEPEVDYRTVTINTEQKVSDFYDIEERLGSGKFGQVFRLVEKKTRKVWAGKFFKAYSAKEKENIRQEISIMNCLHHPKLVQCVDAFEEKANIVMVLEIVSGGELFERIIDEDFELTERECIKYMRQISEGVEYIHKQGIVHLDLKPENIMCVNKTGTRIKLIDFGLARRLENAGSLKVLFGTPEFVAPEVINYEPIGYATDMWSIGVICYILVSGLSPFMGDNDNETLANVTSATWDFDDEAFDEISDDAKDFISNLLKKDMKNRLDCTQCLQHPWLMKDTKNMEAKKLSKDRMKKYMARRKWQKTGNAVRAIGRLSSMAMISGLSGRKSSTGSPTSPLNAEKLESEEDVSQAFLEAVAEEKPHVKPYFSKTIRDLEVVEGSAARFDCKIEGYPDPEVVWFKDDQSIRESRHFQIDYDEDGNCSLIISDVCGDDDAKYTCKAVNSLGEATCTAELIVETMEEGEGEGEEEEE
Series [15] is filed under the species Mus musculus. The experiment in a line: Inhibition of recombinant full-length mouse PI3K p110beta/p85alpha R123L mutant assessed as residual activity at 10 uM using phosphatidylinositol-4, 5-bisphosphate as substrate measured after 40 mins by HTRF assay. Background: In TR-FRET formats the signal depends on donor and acceptor labels being close together.
Series [16] has as its target CDK2/Cyclin A2 (Homo sapiens) (UniProt P24941+P20248). Nature of the series: Inhibition of recombinant full-length human CDK2/cyclinA assessed as residual activity at 10 uM using histone H1 as substrate measured after 40 mins in presence of [gamma33P]ATP by scintillation counting method. The class given is protein-complex assay.
Series [17] has as its target Calcium/calmodulin-dependent protein kinase type 1 (Homo sapiens) (UniProt Q14012). The experiment in a line: Inhibition of recombinant human CaMK1 (2 to end residues) assessed as residual activity at 10 uM using […] as substrate measured after 40 mins in presence of [gamma33P]ATP by scintillation counting method.
In series [18] the target is Serine/threonine-protein kinase Nek11 (Homo sapiens) (UniProt Q8NG66). Nature of the series: Inhibition of recombinant full-length human NEK11 assessed as residual activity at 10 uM using myelin basic protein as substrate measured after 40 mins in presence of [gamma33P]ATP by scintillation counting method.
The target in series [19] is Cytoplasmic tyrosine-protein kinase BMX (Homo sapiens) (UniProt P51813). Nature of the series: Inhibition of full-length recombinant human BMX assessed as residual activity at 10 uM using poly(Glu, Tyr) 4:1 as substrate measured after 40 mins in presence of [gamma33P]ATP by scintillation counting method.
The subject of series [20] is Tyrosine-protein kinase Blk (Homo sapiens), P51451 [UNDEFINED MUTATION]. Nature of the series: Inhibition of full-length recombinant human BLK M287V mutant assessed as residual activity at 10 uM using poly(Glu, Tyr) 4:1 as substrate measured after 40 mins in presence of [gamma33P]ATP by scintillation counting method.
The target in series [21] is Cyclin-dependent kinase 5/CDK5 activator 1 (Homo sapiens) (UniProt Q00535+Q15078). The experiment in a line: Inhibition of recombinant full-length human CDK5/p25 assessed as residual activity at 10 uM using histone H1 as substrate measured after 40 mins in presence of [gamma33P]ATP by scintillation counting method. In kind it is protein-complex assay.
Cyclin-dependent kinase 5/CDK5 activator 1 (Homo sapiens), sequence (Q00535 whole entry): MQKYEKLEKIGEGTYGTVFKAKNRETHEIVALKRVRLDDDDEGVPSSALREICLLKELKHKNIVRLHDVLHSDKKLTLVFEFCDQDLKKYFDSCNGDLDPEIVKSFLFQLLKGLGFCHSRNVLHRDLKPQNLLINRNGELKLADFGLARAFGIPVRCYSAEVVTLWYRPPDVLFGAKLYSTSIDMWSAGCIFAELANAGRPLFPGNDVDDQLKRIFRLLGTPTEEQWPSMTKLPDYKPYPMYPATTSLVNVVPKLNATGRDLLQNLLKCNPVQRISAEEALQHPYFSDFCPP
Cyclin-dependent kinase 5/CDK5 activator 1 (Homo sapiens), sequence (Q15078 99-307 partner limits assumed): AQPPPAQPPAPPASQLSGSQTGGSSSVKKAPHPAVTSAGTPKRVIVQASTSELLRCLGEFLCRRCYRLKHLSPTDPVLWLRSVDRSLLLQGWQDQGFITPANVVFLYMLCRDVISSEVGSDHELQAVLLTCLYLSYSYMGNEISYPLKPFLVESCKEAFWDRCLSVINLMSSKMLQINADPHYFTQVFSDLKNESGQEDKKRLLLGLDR
In series [22] the target is Tyrosine-protein kinase receptor TYRO3 (Homo sapiens) (UniProt Q06418). The experiment in a line: Inhibition of human RSE (451 to end residues) using KVEKIGEGTYGVVYK as substrate measured after 40 mins in presence of [gamma33P]ATP by scintillation counting method. Set-up: scale not given: the % may be the effect or the level left.
Series [23] addresses Serine/threonine-protein kinase Nek7 (Homo sapiens) (UniProt Q8TDX7). Nature of the series: Inhibition of recombinant human NEK7 (2 to end residues) assessed as residual activity at 10 uM using FLAKSFGSPNRAYKK as substrate measured after 40 mins in presence of [gamma33P]ATP by scintillation counting method.
For series [24], the target named is Bone morphogenetic protein receptor type-2 (Homo sapiens) (UniProt Q13873). Nature of the series: Inhibition of recombinant human BMPR2 (172 to 734 residues) assessed as residual activity at 10 uM using myelin basic protein as substrate measured after 120 mins in presence of [gamma33P]ATP by scintillation counting method.

The structures appear in SMILES notation.

Calcium/calmodulin-dependent protein kinase type 1 (Homo sapiens), sequence (Q14012 whole entry, looked up): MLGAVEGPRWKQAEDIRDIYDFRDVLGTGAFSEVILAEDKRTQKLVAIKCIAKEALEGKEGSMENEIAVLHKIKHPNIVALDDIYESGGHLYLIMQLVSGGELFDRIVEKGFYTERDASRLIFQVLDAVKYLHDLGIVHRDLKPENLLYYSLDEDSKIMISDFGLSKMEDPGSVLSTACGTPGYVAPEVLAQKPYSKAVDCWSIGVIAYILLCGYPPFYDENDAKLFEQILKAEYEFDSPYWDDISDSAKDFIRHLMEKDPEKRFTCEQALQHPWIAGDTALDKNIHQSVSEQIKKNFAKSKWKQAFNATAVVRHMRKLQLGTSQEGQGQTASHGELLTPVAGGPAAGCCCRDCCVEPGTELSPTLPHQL
Activated CDC42 kinase 1 (Homo sapiens), sequence (Q07912 whole entry, looked up, the tested form may be a part): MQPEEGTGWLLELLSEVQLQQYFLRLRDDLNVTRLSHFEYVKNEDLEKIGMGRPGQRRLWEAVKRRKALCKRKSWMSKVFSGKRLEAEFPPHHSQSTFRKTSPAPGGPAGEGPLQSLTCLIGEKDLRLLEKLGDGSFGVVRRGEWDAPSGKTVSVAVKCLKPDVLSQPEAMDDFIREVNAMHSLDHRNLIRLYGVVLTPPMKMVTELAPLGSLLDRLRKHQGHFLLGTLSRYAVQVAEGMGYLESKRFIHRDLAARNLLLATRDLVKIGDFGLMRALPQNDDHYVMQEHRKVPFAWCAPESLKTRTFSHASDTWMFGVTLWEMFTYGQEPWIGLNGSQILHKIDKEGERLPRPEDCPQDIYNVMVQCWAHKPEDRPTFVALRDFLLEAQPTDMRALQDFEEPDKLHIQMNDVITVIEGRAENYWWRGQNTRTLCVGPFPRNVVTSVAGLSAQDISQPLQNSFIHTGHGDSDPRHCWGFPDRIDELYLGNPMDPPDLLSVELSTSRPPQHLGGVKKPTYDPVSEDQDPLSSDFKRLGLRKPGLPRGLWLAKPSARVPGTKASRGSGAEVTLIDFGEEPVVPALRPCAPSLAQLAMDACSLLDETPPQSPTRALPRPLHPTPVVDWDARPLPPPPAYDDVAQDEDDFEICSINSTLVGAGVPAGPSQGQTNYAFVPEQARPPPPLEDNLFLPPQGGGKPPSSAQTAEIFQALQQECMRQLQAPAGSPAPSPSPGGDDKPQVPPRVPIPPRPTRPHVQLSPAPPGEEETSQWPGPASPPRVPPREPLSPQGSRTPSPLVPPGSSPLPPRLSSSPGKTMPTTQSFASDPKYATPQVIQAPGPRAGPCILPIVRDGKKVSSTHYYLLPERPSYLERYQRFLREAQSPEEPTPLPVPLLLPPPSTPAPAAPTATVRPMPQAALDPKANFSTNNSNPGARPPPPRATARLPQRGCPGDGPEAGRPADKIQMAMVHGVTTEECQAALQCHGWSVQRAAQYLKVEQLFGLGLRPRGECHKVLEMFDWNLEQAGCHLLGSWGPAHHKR

What is called IC50 is the concentration needed to halve the response being measured. For `Cc1cc(C)c(CNc2nc(Cl)nc3c2ncn3C2CCCC2)c(=O)[nH]1`, the Activity in series [1] was 3.57%; in [2], 118%; in [3], 94.5%; in series [4], 101%; in series [5], 95.5%; in [6], 6.55%. Further, the Activity is 106% in series [7]; 101% in [8]; 110% in series [9]; 104% in [10]; 101% in [11]; “Non-Toxic” in [13]. The Activity in series [14] was determined as 94%; in series [15], 104%; in [16], 110%; in [17], 109%; in [18], 102%; in [19], 132%. For the same compound, the Activity in series [20] worked out at 115%; in [21] it was 94%; in series [22], 126%; in series [23], 106%; in series [24] it was 109%. The IC50 in [12] amounted to 200 nM.

Values taken from ChEMBL document CHEMBL4311992, “Discovery of 3-(((9H-purin-6-yl)amino)methyl)-4,6-dimethylpyridin-2(1H)-one derivatives as novel tubulin polymerization inhibitors for treatment of cancer” (Eur J Med Chem, 2019).
